Source: US20120108669A1, “METHOD OF TREATING SLEEP DISORDERS USING EPLIVANSERIN” (SANOFI-AVENTIS, priority 2008, published 2012)

Key:
[1] = tested on: patients with chronic (primary) insomnia characterized by sleep maintenance difficulties; test: Study LTE6262: 12-week patient-reported sleep parameters (daily sleep questionnaire, IVRS); type: in vivo, human; settings: 5 mg/day; for Quality of sleep Difference from Placebo LS Mean / Refreshing QoS Difference from Placebo LS Mean / pr-NAW Difference from Placebo LS Mean / Quality of sleep LS Mean / Refreshing QoS LS Mean / pr-NAW LS Mean: MMRM, ITT; for Quality of sleep LS Mean / Refreshing QoS LS Mean / pr-NAW LS Mean: mean change
Source text: (§1) The Phase 3 program of development of eplivanserin in the treatment of patients with chronic (primary) insomnia characterized by sleep maintenance difficulties consisted of 3 randomized, double-blind (DB), placebo-controlled, efficacy and safety studies designed to assess the efficacy of eplivanserin on sleep maintenance either using polysomnography (PSG) recordings (6-week study EFC6220) or patient-reported outcome (12-week studies LTE6217 and LTE6262) collected daily on sleep questionnaires.
(§2) They were all double-blind (DB), randomized, placebo-controlled studies. In all studies, treatment period was preceded by a one week, placebo run-in period, designed to check selection criteria for insomnia based on patient reported sleep parameters collected on the daily sleep questionnaires (Studies LTE6217, and LTE6262) or based on PSG recordings during two screening nights in a sleep laboratory (Study EFC6220). Treatment period was followed by a placebo run-out period of 2 weeks designed to assess the effect of abrupt treatment discontinuation.
(§3) Studies LTE6217 and LTE6262 measured the efficacy of eplivanserin in real life conditions of use at home by collecting daily sleep parameters reported by patients through an Interactive Voice Response System (IVRS).
In these tables, values are given as an amount of time expressed in minutes and seconds (mm:ss).

[2] = tested on: patients exposed to eplivanserin; test: Example 3: diverticulitis in pooled phase 2 and 3 trials; type: in vivo, human; settings: for Incidence of Diverticulitis by sub-group: all eplivanserin doses
Source text: Hereafter are the observations made in pooled phase 2 and 3 trials with eplivanserin or pharmaceutically acceptable salts or esters thereof.
The majority of patients were non-elderly, females, and Caucasian with a median age between 47 and 51 years across treatment groups.

[3] = tested on: patients with chronic (primary) insomnia characterized by sleep maintenance difficulties; test: Study LTE6217: 12-week patient-reported sleep parameters (daily sleep questionnaire, IVRS); type: in vivo, human; settings: 5 mg/day, MMRM, ITT; for Quality of sleep LS Mean (SEM) / Refreshing quality of sleep LS Mean (SEM) / pr-NAW LS Mean (SEM): mean change
Source text: as §1, §2
Studies LTE6217 and LTE6262 measured the efficacy of eplivanserin in real life conditions of use at home by collecting daily sleep parameters reported by patients through an Interactive Voice Response System (IVRS). […]

[4] = tested on: patients with chronic (primary) insomnia characterized by sleep maintenance difficulties; test: Study EFC6220: 6-week polysomnography (PSG) study of sleep maintenance; type: in vivo, human; settings: for PSG-NAW (number of awakenings) LS mean: p<0.0001
Source text: as §1, §2
Study EFC6220 was designed to measure the pharmacodynamic activity of eplivanserin on sleep maintenance using PSG recordings in a sleep laboratory. Polysomnograms were recorded in standard conditions during 8 hours in bed.

[5] = tested on: patients with chronic (primary) insomnia characterized by sleep maintenance difficulties; test: Long-term studies LTE6217 and LTE6262 together: patient global impression, daytime function, residual effects; type: in vivo, human
Source text: as §1, §2, §3

healthy male subjects = test: Example 2: single-dose cross-over study of sleep (EEG) and daytime functioning; type: in vivo, human
Protocol: The effects of eplivanserin or pharmaceutically acceptable salts or esters thereof on sleep and daytime functioning in healthy subjects were examined.
Double-blind, randomized, placebo (PBO)-controlled, 4-period, cross-over study with a 1-2-week washout between each period. Single oral doses of eplivanserin or pharmaceutically acceptable salts or esters thereof 1, 10 and 40 mg and PBO were given to healthy male subjects in either the evening (pm) or the morning (am; n=16). Sleep was assessed objectively using an EEG and subjectively by Leeds Sleep Evaluation Questionnaire. Next-day psychomotor function, memory and arousal were measured objectively via Critical Flicker Fusion (CFF), Choice Reaction Time, Compensatory Tracking and Sternberg memory-scanning tasks. Subjective assessment of drug activity was performed using Line Analogue Rating Scales.

[6] = cited from earlier work
[7] = all Phase 2-3 studies, all doses
[8] = 5 mg/day, in comparison with placebo, after 6 and 12 weeks
[9] = single oral 1, 10 and 40 mg, morning or evening, P=0.0001 vs PBO

## CN(C)CCO/N=C(/C=C/c1ccc(O)cc1)c1ccccc1F [eplivanserin, (1Z, 2E)-1-(2-fluorophenyl)-3-(4-hydroxyphenyl)-prop-2-en-1-one-O-(2-dimethylaminoethyl)oxime]
[1]; observed from Day 1
  persistence of effect on sleep maintenance (pr-WASO): persisted up to 1 year of treatment
[1]; Week 6
  Quality of sleep Difference from Placebo LS Mean: −0.13
  Refreshing QoS Difference from Placebo LS Mean: −0.13
  pr-NAW Difference from Placebo LS Mean: −0.34
  Quality of sleep LS Mean: −0.58
  Refreshing QoS LS Mean: −0.55
  pr-NAW LS Mean: −0.99
[1]; Week 12
  Quality of sleep Difference from Placebo LS Mean: −0.14
  Refreshing QoS Difference from Placebo LS Mean: −0.15
  pr-NAW Difference from Placebo LS Mean: −0.35
  Quality of sleep LS Mean: −0.63
  Refreshing QoS LS Mean: −0.60
  pr-NAW LS Mean: −1.08
[2]; 30 patients
  final outcome of diverticulitis: Recovery was reported as final outcome in all patients, except 2
[2]; 30 patients with diverticulitis
  median time to onset of diverticulitis: 58 days
[2]; Age groups (years): <65
  Incidence of Diverticulitis by sub-group: 18/2636 (0.7%) (0.41 to 1.08)
[2]; Age groups (years): >=65
  Incidence of Diverticulitis by sub-group: 12/394 (3.0%) (1.58 to 5.26)
[2]; BMI (kg/m2): 25-30
  Incidence of Diverticulitis by sub-group: 17/1292 (1.3%) (0.77 to 2.10)
[2]; BMI (kg/m2): <25
  Incidence of Diverticulitis by sub-group: 6/1121 (0.5%) (0.20 to 1.16)
[2]; BMI (kg/m2): >=30
  Incidence of Diverticulitis by sub-group: 7/617 (1.1%) (0.46 to 2.32)
[2]; Concomitant drugs that inhibit prostaglandin synthesis: No
  Incidence of Diverticulitis by sub-group: 15/2161 (0.7%) (0.39 to 1.14)
[2]; Concomitant drugs that inhibit prostaglandin synthesis: Yes
  Incidence of Diverticulitis by sub-group: 15/869 (1.7%) (0.97 to 2.83)
[2]; Concomitant opioids: No
  Incidence of Diverticulitis by sub-group: 27/2999 (0.9%) (0.59 to 1.31)
[2]; Concomitant opioids: Yes
  Incidence of Diverticulitis by sub-group: 3/31 (9.7%) (2.04 to 25.75)
[2]; Creatinine clearance at baseline (ml/min): Mild: [50, 80[
  Incidence of Diverticulitis by sub-group: 11/669 (1.6%) (0.82 to 2.92)
[2]; Creatinine clearance at baseline (ml/min): Moderate/Severe: <50
  Incidence of Diverticulitis by sub-group: 1/44 (2.3%) (0.06 to 12.02)
[2]; Creatinine clearance at baseline (ml/min): Normal: >=80 or Missing
  Incidence of Diverticulitis by sub-group: 18/2317 (0.8%) (0.46 to 1.23)
[2]; Gender: Female
  Incidence of Diverticulitis by sub-group: 18/1651 (1.1%) (0.65 to 1.72)
[2]; Gender: Male
  Incidence of Diverticulitis by sub-group: 12/1379 (0.9%) (0.45 to 1.52)
[2]; Medical history of constipation: No
  Incidence of Diverticulitis by sub-group: 27/2943 (0.9%) (0.61 to 1.33)
[2]; Medical history of constipation: Yes
  Incidence of Diverticulitis by sub-group: 3/87 (3.4%) (0.72 to 9.75)
[2]; Medical history of diverticular disease (includes diverticulitis): No
  Incidence of Diverticulitis by sub-group: 18/2984 (0.6%) (0.36 to 0.95)
[2]; Medical history of diverticular disease (includes diverticulitis): Yes
  Incidence of Diverticulitis by sub-group: 12/46 (26.1%) (14.27 to 41.13)
[2]; Medical history of diverticulitis: No
  Incidence of Diverticulitis by sub-group: 23/3005 (0.8%) (0.49 to 1.15)
[2]; Medical history of diverticulitis: Yes
  Incidence of Diverticulitis by sub-group: 7/25 (28.0%) (12.07 to 49.39)
[2]; Race: Asian/Oriental/Other
  Incidence of Diverticulitis by sub-group: 0/138
[2]; Race: Black
  Incidence of Diverticulitis by sub-group: 1/162 (0.6%) (0.02 to 3.39)
[2]; Race: Caucasian
  Incidence of Diverticulitis by sub-group: 29/2730 (1.1%) (0.71 to 1.52)
[2]; [7]
  exposure adjusted incidence rate of diverticulitis: 3.32 patients with an event per 100 patient-years
  patients exposed who developed diverticulitis: 1%
[2]; all Phase 2-3 studies, all doses, n/N
  patients exposed who developed diverticulitis: 30/3030
[2]; at Week 24, all doses
  cumulative incidence rate of diverticulitis: about 1.6%
[2]; clinical trials in patients with sleep disorders
  time of diverticulitis events after treatment initiation: two months on average
[2]; from the onset of the event
  duration of diverticulitis episodes, mean: 23 days
  duration of diverticulitis episodes, median: 17 days
[2]; in the 30 patients
  total episodes of diverticulitis: 39
[2]; of 30 patients
  non-serious cases of diverticulitis: 23
  serious cases of diverticulitis: 7
[2]; per Investigator's judgment
  episodes of diverticulitis of mild intensity: Three out of 39
  episodes of diverticulitis of moderate intensity: 26/39
  episodes of diverticulitis of severe intensity: 10/39
[3]; Week 6
  Quality of sleep Difference from Placebo LS Mean: −0.11
  Refreshing quality of sleep Difference from Placebo LS Mean: −0.11
  pr-NAW Difference from Placebo LS Mean: −0.39
  Quality of sleep LS Mean (SEM): −0.65 (0.02)
  Refreshing quality of sleep LS Mean (SEM): −0.62 (0.02)
  pr-NAW LS Mean (SEM): −1.16 (0.04)
[3]; Week 12
  Quality of sleep Difference from Placebo LS Mean: −0.10
  Refreshing quality of sleep Difference from Placebo LS Mean: −0.09
  pr-NAW Difference from Placebo LS Mean: −0.33
  Quality of sleep LS Mean (SEM): −0.73 (0.03)
  Refreshing quality of sleep LS Mean (SEM): −0.70 (0.03)
  pr-NAW LS Mean (SEM): −1.27 (0.04)
[4]; 5 mg
  sleep onset (PSG-LPS and pr-SOL): did not affect sleep onset
[4]; 5 mg/day compared with placebo
  percentage of time spent in sleep Stages 3&4 (slow wave sleep): increased percentage of time
  sleep Stage 1: decrease of Stage 1
[4]; Week 3, 5 mg
  PSG-NAW (number of awakenings) LS mean: −1.74
[4]; Week 3 and Week 6, difference with placebo did not reach statistical significance at Week 6
  PSG-WASO (Wake after sleep onset): decreasing PSG-WASO
[4]; Week 6, 5 mg
  PSG-NAW (number of awakenings) LS mean: −1.82
[4]; compared to placebo
  number of brief awakenings (<1 min): decreased the number of brief awakenings
[4]; in vivo
  QoS (quality of sleep): improved
  REM (rapid eye movement) sleep: not affected
  SWS/WASO+Stage 1 index: increase of SWS/WASO+Stage 1 index
[5]; [8]
  PGI-item 1: aid to sleep
  PGI-item 3: increasing duration of sleep
[5]; after 12 weeks, Study LTE6262 and meta-analysis of LTE6262 and LTE6217, compared with placebo
  improvement of activities related to work and hobby activities: positive effect
[5]; reported by insomniac patients, compared with placebo
  "sleepiness in the morning" and "ability to concentrate": significantly favourable effect
[5]; safety analyses
  potential for residual effects (next-day impairment): devoid of next-day impairment
Healthy male subjects; P=0.0004 vs PBO
  Sleep efficiency (time asleep/time in bed): significantly improved
Healthy male subjects; P=0.03 vs PBO
  number of awakenings ≧120 s: significantly reduced
Healthy male subjects; at all doses
  CFF threshold detection: slight decrease
Healthy male subjects; in vivo
  Times to sleep onset and total sleep time: unaffected
  treatment-emergent AEs: No serious or severe treatment-emergent AEs were reported
Healthy male subjects; regardless of dosage or dose timing (morning or evening)
  SWS: doubled
Healthy male subjects; regardless of dose, or am or pm administration
  next-day objective psychomotor function or memory tests, subjective ratings of 'hangover' or CNS sedation: no detrimental effects
Healthy male subjects; [9]
  'deep'/slow-wave sleep (SWS) time: significantly increased
  Stage 2 (light) sleep: decreased
[6]; average value
  half-life time: 50 h
[6]; in vivo
  absorption (well absorbed): > 70%
